# Experimental data taken from PubChem BioAssay (NCI).
#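 Growth conditions: 96-well plates. Treatment: test compound, 48 hours, 5 concentrations. Analysis: linear interpolation between bracketing concentrations; unreached endpoints set to highest concentration. Here, GI50 denotes the concentration required for 50% inhibition of growth. TGI marks complete inhibition of growth.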
# What was measured:
# Experiment in all cases: NCI tumour cell line growth inhibition, 48 h
# [1] = system: 786-0 renal
# [2] = system: A498 renal
# [3] = system: A549 NSCLC
# [4] = system: ACHN renal
# [5] = system: BT-549 breast
# [6] = system: CAKI-1 renal
# [7] = system: CCRF-CEM leukemia
# [8] = system: COLO 205 colon
# [9] = system: DU-145 prostate
# [10] = system: EKVX NSCLC
# [11] = system: HCC-2998 colon
# [12] = system: HCT-116 colon
# [13] = system: HCT-15 colon
# [14] = system: HL-60(TB) leukemia
# [15] = system: HOP-62 NSCLC
# [16] = system: HOP-92 NSCLC
# [17] = system: HS 578T breast
# [18] = system: HT29 colon
# [19] = system: IGROV1 ovarian
# [20] = system: K-562 leukemia
# [21] = system: KM12 colon
# [22] = system: M14 melanoma
# [23] = system: MALME-3M melanoma
# [24] = system: MCF7 breast
# [25] = system: MDA-MB-231 breast
# [26] = system: MDA-MB-435
# [27] = system: MOLT-4 leukemia
# [28] = system: NCI-H226 lung
# [29] = system: NCI-H23 lung
# [30] = system: NCI-H460 lung
# [31] = system: NCI-H522 lung
# [32] = system: NCI/ADR-RES ovarian
# [33] = system: OVCAR-4 ovarian
# [34] = system: OVCAR-5 ovarian
# [35] = system: OVCAR-8 ovarian
# [36] = system: PC-3 prostate
# [37] = system: RPMI-8226 leukemia
# [38] = system: RXF 393 renal
# [39] = system: SF-268 CNS
# [40] = system: SF-295 CNS
# [41] = system: SF-539 CNS
# [42] = system: SK-MEL-2 melanoma
# [43] = system: SK-MEL-28 melanoma
# [44] = system: SK-MEL-5 melanoma
# [45] = system: SK-OV-3 ovarian
# [46] = system: SN12C renal
# [47] = system: SNB-19 CNS
# [48] = system: SNB-75 CNS
# [49] = system: SR leukemia
# [50] = system: SW-620 colon
# [51] = system: T-47D breast
# [52] = system: TK-10 renal
# [53] = system: U251 CNS
# [54] = system: UACC-257 melanoma
# [55] = system: UACC-62 melanoma
# [56] = system: UO-31 renal
structure (smiles),measurement,setting,value
O=C(NCCCNc1cc(-c2cn(-c3ccccc3)nc2-c2cccc(O)c2)ccn1)Nc1ccc(F)cc1,GI50,[1],0.855 µM
same,TGI,[1],3.61 µM
same,GI50,[2],1.21 µM
same,TGI,[2],4.96 µM
same,GI50,[3],3.12 µM
same,TGI,[3],21.7 µM
same,GI50,[4],3.16 µM
same,TGI,[4],14.2 µM
same,GI50,[5],2.18 µM
same,TGI,[5],11.6 µM
same,GI50,[6],2.04 µM
same,TGI,[6],10.7 µM
same,GI50,[7],1.42 µM
same,TGI,[7],25 µM
same,GI50,[8],2.34 µM
same,TGI,[8],6.28 µM
same,GI50,[9],4.22 µM
same,TGI,[9],19.3 µM
same,GI50,[10],2.74 µM
same,TGI,[10],9.51 µM
same,GI50,[11],1.09 µM
same,TGI,[11],4.05 µM
same,GI50,[12],1.62 µM
same,TGI,[12],5.82 µM
same,GI50,[13],0.936 µM
same,TGI,[13],4.04 µM
same,GI50,[14],2.15 µM
same,TGI,[14],14.2 µM
same,GI50,[15],3.24 µM
same,TGI,[15],9.26 µM
same,GI50,[16],0.86 µM
same,TGI,[16],4.97 µM
same,GI50,[17],0.984 µM
same,TGI,[17],5.31 µM
same,GI50,[18],1.09 µM
same,TGI,[18],4.99 µM
same,GI50,[19],1.23 µM
same,TGI,[19],5.82 µM
same,GI50,[20],0.812 µM
same,TGI,[20],25 µM
same,GI50,[21],2.61 µM
same,TGI,[21],5.79 µM
same,GI50,[22],1.57 µM
same,TGI,[22],5.85 µM
same,GI50,[23],0.826 µM
same,TGI,[23],3.42 µM
same,GI50,[24],2.32 µM
same,TGI,[24],6.04 µM
same,GI50,[25],2.18 µM
same,TGI,[25],7.78 µM
same,GI50,[26],1.66 µM
same,TGI,[26],5.05 µM
same,GI50,[27],1.25 µM
same,TGI,[27],15.6 µM
same,GI50,[28],3.39 µM
same,TGI,[28],8.91 µM
same,GI50,[29],3.11 µM
same,TGI,[29],7.65 µM
same,GI50,[30],2.35 µM
same,TGI,[30],5.88 µM
same,GI50,[31],4.03 µM
same,TGI,[31],9.49 µM
same,GI50,[32],3.51 µM
same,TGI,[32],12.5 µM
same,GI50,[33],1.46 µM
same,TGI,[33],8.21 µM
same,GI50,[34],3.37 µM
same,TGI,[34],9.12 µM
same,GI50,[35],2.13 µM
same,TGI,[35],9.26 µM
same,GI50,[36],1.33 µM
same,TGI,[36],8.92 µM
same,GI50,[37],0.865 µM
same,TGI,[37],5.47 µM
same,GI50,[38],0.966 µM
same,TGI,[38],4.85 µM
same,GI50,[39],2.61 µM
same,TGI,[39],11.2 µM
same,GI50,[40],1.38 µM
same,TGI,[40],4.84 µM
same,GI50,[41],1.98 µM
same,TGI,[41],5.38 µM
same,GI50,[42],4 µM
same,TGI,[42],10.1 µM
same,GI50,[43],2.54 µM
same,TGI,[43],5.64 µM
same,GI50,[44],1.64 µM
same,TGI,[44],4.83 µM
same,GI50,[45],3.12 µM
same,TGI,[45],10.8 µM
same,GI50,[46],2.79 µM
same,TGI,[46],8.37 µM
same,GI50,[47],3.29 µM
same,TGI,[47],9.75 µM
same,GI50,[48],0.543 µM
same,TGI,[48],3.18 µM
same,GI50,[49],1.51 µM
same,TGI,[49],13.8 µM
same,GI50,[50],3.04 µM
same,TGI,[50],6.73 µM
same,GI50,[51],1.89 µM
same,TGI,[51],11 µM
same,GI50,[52],6.78 µM
same,TGI,[52],20.3 µM
same,GI50,[53],2.05 µM
same,TGI,[53],7.55 µM
same,GI50,[54],3.07 µM
same,TGI,[54],7.54 µM
same,GI50,[55],3.14 µM
same,TGI,[55],6.6 µM
same,GI50,[56],1.58 µM
same,TGI,[56],9.7 µM
